Experimental data reported in ChEMBL document CHEMBL3286334, “Identification of tetrapeptides from a mixture based positional scanning library that can restore nM full agonist function of the L106P, I69T, I102S, A219V, C271Y, and C271R human melanocortin-4 polymorphic receptors (hMC4Rs)” (J Med Chem, 2014).
Where a SMILES comes first, the peptide text is derived from it. [ ]: non-standard residue; d: D form. Phe(4-I) = N[C@@H](Cc1ccc(I)cc1)C(=O)O; dPhe(4-I) = N[C@H](Cc1ccc(I)cc1)C(=O)O; Tic = O=C(O)[C@@H]1Cc2ccccc2CN1; dTic = O=C(O)[C@H]1Cc2ccccc2CN1

Columns and labels:
Assay type in all cases: functional, cell-based
Melanocortin receptor 4 [1] = target: Melanocortin receptor 4 (Homo sapiens, UniProt P32245); test: Agonist activity at wild type human melanocortin-4 receptor expressed in HEK293 cells co-transfected with CRE/beta-galactosidase reporter gene assessed as stimulatory response after 6 hrs
Melanocortin receptor 4 [2] = target: Melanocortin receptor 4 (Homo sapiens, UniProt P32245, L106P); test: Agonist activity at human melanocortin-4 receptor L106P mutant expressed in HEK293 cells co-transfected with CRE/beta-galactosidase reporter gene assessed as stimulatory response after 6 hrs
Melanocortin receptor 3 = Melanocortin receptor 3 (Mus musculus, UniProt P33033); test: Agonist activity at mouse melanocortin-3 receptor expressed in HEK293 cells co-transfected with CRE/beta-galactosidase reporter gene assessed as stimulatory response after 6 hrs
[3] = target: Melanocyte-stimulating hormone receptor (Mus musculus, UniProt Q01727); test: Agonist activity at mouse melanocortin-1 receptor expressed in HEK293 cells co-transfected with CRE/beta-galactosidase reporter gene assessed as stimulatory response after 6 hrs
Melanocortin receptor 4 [4] = target: Melanocortin receptor 4 (Homo sapiens, UniProt P32245, C271Y); test: Agonist activity at human melanocortin-4 receptor C271Y mutant expressed in HEK293 cells co-transfected with CRE/beta-galactosidase reporter gene assessed as stimulatory response after 6 hrs
Melanocortin receptor 4 [5] = target: Melanocortin receptor 4 (Homo sapiens, UniProt P32245, I102S); test: Agonist activity at human melanocortin-4 receptor I102S mutant expressed in HEK293 cells co-transfected with CRE/beta-galactosidase reporter gene assessed as stimulatory response after 6 hrs
Melanocortin receptor 4 [6] = target: Melanocortin receptor 4 (Homo sapiens, UniProt P32245, I69T); test: Agonist activity at human melanocortin-4 receptor I69T mutant expressed in HEK293 cells co-transfected with CRE/beta-galactosidase reporter gene assessed as stimulatory response after 6 hrs
Melanocortin receptor 4 [7] = target: Melanocortin receptor 4 (Homo sapiens, UniProt P32245, A219V); test: Agonist activity at human melanocortin-4 receptor A219V mutant expressed in HEK293 cells co-transfected with CRE/beta-galactosidase reporter gene assessed as stimulatory response after 6 hrs
Melanocortin receptor 4 [8] = target: Melanocortin receptor 4 (Mus musculus, UniProt P56450); test: Agonist activity at mouse melanocortin-4 receptor expressed in HEK293 cells co-transfected with CRE/beta-galactosidase reporter gene assessed as stimulatory response after 6 hrs
Melanocortin receptor 5 = Melanocortin receptor 5 (Mus musculus, UniProt P41149); test: Agonist activity at mouse melanocortin-5 receptor expressed in HEK293 cells co-transfected with CRE/beta-galactosidase reporter gene assessed as stimulatory response after 6 hrs

| Compound | EC50 (Melanocortin receptor 4 [1]) | EC50 (Melanocortin receptor 4 [2]) | other results |
| --- | --- | --- | --- |
| CC(=O)N[C@@H](Cc1c[nH]cn1)C(=O)N[C@H](Cc1ccc(I)cc1)C(=O)N[C@@H](CCCNC(=N)N)C(=O)N1Cc2ccccc2C[C@H]1C(N)=O (Ac-H[dPhe(4-I)]R[Tic]-NH2) | 89 nM | 6920 nM |  |
| CC(=O)N1Cc2ccccc2C[C@H]1C(=O)N[C@H](Cc1ccc(Cl)cc1)C(=O)N[C@@H](CCCNC(=N)N)C(=O)N1Cc2ccccc2C[C@H]1C(N)=O | 960 nM | 15500 nM |  |
| CC(=O)N[C@@H](CCCNC(=N)N)C(=O)N[C@H](Cc1ccc(Cl)cc1)C(=O)N[C@@H](CCCNC(=N)N)C(=O)N1Cc2ccccc2C[C@H]1C(N)=O | 110 nM | 2720 nM |  |
| CC(=O)N1Cc2ccccc2C[C@H]1C(=O)N[C@H](Cc1ccc(I)cc1)C(=O)N[C@@H](CCCNC(=N)N)C(=O)N1Cc2ccccc2C[C@H]1C(N)=O | 280 nM | 2260 nM |  |
| CC(=O)N[C@@H](CCCNC(=N)N)C(=O)N[C@H](Cc1ccc(Cl)cc1)C(=O)N1Cc2ccccc2CC1C(=O)N[C@H](Cc1ccc([N+](=O)[O-])cc1)C(N)=O (stereo partly drawn) |  |  | EC50 (Melanocortin receptor 3): 94 nM |
| CC(=O)N[C@@H](CCCNC(=N)N)C(=O)N[C@H](Cc1ccc(I)cc1)C(=O)N1Cc2ccccc2CC1C(=O)N[C@H](Cc1ccc([N+](=O)[O-])cc1)C(N)=O (stereo partly drawn) |  |  | EC50 (Melanocortin receptor 3): 47 nM |
| CC(=O)N[C@H](CCCNC(=N)N)C(=O)N[C@H](Cc1ccccc1)C(=O)N[C@@H](CCCNC(=N)N)C(=O)N[C@@H](Cc1c[nH]c2ccccc12)C(N)=O | 40 nM | 1240 nM |  |
| CC(=O)N[C@@H](Cc1cnc[nH]1)C(=O)N[C@H](Cc1ccc(Cl)cc1)C(=O)N[C@@H](CCCNC(=N)N)C(=O)N[C@@H](Cc1ccc(I)cc1)C(N)=O |  |  | EC50 [3]: 19 nM |
| CC(=O)N[C@@H](CCCNC(=N)N)C(=O)N[C@H](Cc1ccc(Cl)cc1)C(=O)N1Cc2ccccc2CC1C(=O)N[C@@H](Cc1ccc(I)cc1)C(N)=O (stereo partly drawn) | 22 nM | 215 nM |  |
| CC(=O)N[C@@H](CCCNC(=N)N)C(=O)N[C@H](Cc1ccc(Cl)cc1)C(=O)N[C@@H](CCCNC(=N)N)C(=O)N[C@@H](Cc1ccc(I)cc1)C(N)=O |  | 13 nM | EC50 (Melanocortin receptor 4 [4]): > 100 µM |
| CC(=O)N[C@@H](Cc1c[nH]cn1)C(=O)N[C@H](Cc1ccccc1)C(=O)N1Cc2ccccc2C[C@H]1C(=O)N[C@@H](Cc1c[nH]c2ccccc12)C(N)=O |  |  | EC50 (Melanocortin receptor 4 [1]; hek293): 204 nM; EC50 (Melanocortin receptor 4 [2]; hek293): 18800 nM |
| CC(=O)N[C@@H](Cc1c[nH]cn1)C(=O)N[C@H](Cc1ccc(I)cc1)C(=O)N1Cc2ccccc2C[C@H]1C(=O)N1Cc2ccccc2C[C@H]1C(N)=O | 24 nM | 3760 nM |  |
| CC(=O)N[C@@H](Cc1cnc[nH]1)C(=O)N[C@H](Cc1ccccc1)C(=O)N[C@@H](CCCNC(=N)N)C(=O)N1Cc2ccccc2CC1C(N)=O (stereo partly drawn) | > 10000 nM | > 100000 nM |  |
| CC(=O)N[C@@H](CCCNC(=N)N)C(=O)N[C@H](Cc1ccc(I)cc1)C(=O)N1Cc2ccccc2C[C@H]1C(=O)N1Cc2ccccc2C[C@H]1C(N)=O | 2260 nM | 27500 nM |  |
| CC(=O)N1Cc2ccccc2C[C@H]1C(=O)N[C@H](Cc1ccc(I)cc1)C(=O)N1Cc2ccccc2C[C@H]1C(=O)N[C@H](Cc1ccc([N+](=O)[O-])cc1)C(N)=O | 5.1 nM | 280 nM |  |
| CC(=O)N1Cc2ccccc2CC1C(=O)N[C@H](Cc1ccc(Cl)cc1)C(=O)N[C@@H](CCCNC(=N)N)C(=O)N[C@@H](Cc1ccc(I)cc1)C(N)=O (stereo partly drawn) | 2.6 nM | 380 nM |  |
| CC(=O)N[C@@H](CCCNC(=N)N)C(=O)N[C@H](Cc1ccc(Cl)cc1)C(=O)N1Cc2ccccc2C[C@H]1C(=O)N1Cc2ccccc2C[C@H]1C(N)=O | 250 nM | 2450 nM |  |
| CC(=O)N1Cc2ccccc2C[C@H]1C(=O)N[C@H](Cc1ccc(Cl)cc1)C(=O)N1Cc2ccccc2C[C@H]1C(=O)N[C@H](Cc1ccc([N+](=O)[O-])cc1)C(N)=O | 9.6 nM | 310 nM |  |
| CC(=O)N[C@@H](Cc1c[nH]c2ccccc12)C(=O)N[C@H](Cc1ccccc1)C(=O)N[C@@H](CCCN=C(N)N)C(=O)N[C@@H](Cc1c[nH]c2ccccc12)C(N)=O (Ac-W[dF]RW-NH2) | 32 nM | 170 nM |  |
| CC(=O)N1Cc2ccccc2CC1C(=O)N[C@H](Cc1ccc(Cl)cc1)C(=O)N1Cc2ccccc2CC1C(=O)N[C@@H](Cc1ccc(I)cc1)C(N)=O (stereo partly drawn) | 120 nM | 2670 nM |  |

| Compound | EC50 (Melanocortin receptor 4 [1]) | EC50 (Melanocortin receptor 4 [2]) | other results |
| --- | --- | --- | --- |
| CC(=O)N1Cc2ccccc2C[C@H]1C(=O)N[C@H](Cc1ccc(I)cc1)C(=O)N[C@@H](CCCNC(=N)N)C(=O)N[C@H](Cc1ccc([N+](=O)[O-])cc1)C(N)=O | 20 nM | 657 nM |  |
| CC(=O)N[C@@H](Cc1cnc[nH]1)C(=O)N[C@H](Cc1ccccc1)C(=O)N[C@@H](CCCCN)C(=O)N[C@@H](Cc1c[nH]c2ccccc12)C(N)=O | 40 nM | 6240 nM |  |
| CC(=O)N[C@@H](CCCNC(=N)N)C(=O)N[C@H](Cc1ccc(I)cc1)C(=O)N[C@@H](CCCNC(=N)N)C(=O)N1Cc2ccccc2C[C@H]1C(N)=O | 57 nM | 3170 nM |  |
| CC(=O)N[C@@H](Cc1cnc[nH]1)C(=O)N[C@H](Cc1ccc(Cl)cc1)C(=O)N1Cc2ccccc2CC1C(=O)N[C@@H](Cc1ccc(I)cc1)C(N)=O (stereo partly drawn) | 15 nM | 790 nM |  |
| CC(=O)N[C@@H](CCCNC(=N)N)C(=O)N[C@H](Cc1ccccc1)C(=O)N[C@@H](CCCNC(=N)N)C(=O)N[C@@H](Cc1c[nH]c2ccccc12)C(N)=O | 1.06 nM | 124 nM |  |
| CC(=O)N1Cc2ccccc2C[C@H]1C(=O)N[C@H](Cc1ccccc1)C(=O)N[C@@H](CCCNC(=N)N)C(=O)N[C@@H](Cc1c[nH]c2ccccc12)C(N)=O (Ac-[Tic][dF]RW-NH2) |  |  | EC50 (Melanocortin receptor 4 [1]; hek293): 15 nM; EC50 (Melanocortin receptor 4 [2]; hek293): 4940 nM |
| CC(=O)N[C@@H](Cc1cnc[nH]1)C(=O)N[C@H](Cc1ccccc1)C(=O)N[C@@H](CCCNC(=N)N)C(=O)N[C@@H](Cc1ccc([N+](=O)[O-])cc1)C(N)=O | 195 nM | 23000 nM |  |
| CC(=O)N[C@@H](Cc1cnc[nH]1)C(=O)N[C@H](Cc1ccc(I)cc1)C(=O)N1Cc2ccccc2CC1C(=O)N[C@@H](Cc1ccc(I)cc1)C(N)=O (stereo partly drawn) | 7.42 nM | 570 nM |  |
| CC(=O)N1Cc2ccccc2C[C@@H]1C(=O)N[C@H](Cc1ccccc1)C(=O)N[C@@H](CCCN=C(N)N)C(=O)N[C@@H](Cc1c[nH]c2ccccc12)C(N)=O (Ac-[dTic][dF]RW-NH2) | 297 nM | 17900 nM |  |
| CC(=O)N[C@@H](CCCNC(=N)N)C(=O)N[C@H](Cc1ccc(I)cc1)C(=O)N1Cc2ccccc2CC1C(=O)N[C@@H](Cc1ccc(I)cc1)C(N)=O (stereo partly drawn) | 203 nM | 2230 nM |  |
| CC(=O)N[C@@H](Cc1cnc[nH]1)C(=O)N[C@H](Cc1ccc(Cl)cc1)C(=O)N1Cc2ccccc2CC1C(=O)N[C@H](Cc1ccc([N+](=O)[O-])cc1)C(N)=O (stereo partly drawn) |  |  | EC50 (Melanocortin receptor 3): 55 nM |
| CC(=O)N1Cc2ccccc2C[C@H]1C(=O)N[C@H](Cc1ccc(Cl)cc1)C(=O)N[C@@H](CCCNC(=N)N)C(=O)N[C@H](Cc1ccc([N+](=O)[O-])cc1)C(N)=O | 40 nM | 710 nM |  |
| CC(=O)N[C@@H](CCCNC(=N)N)C(=O)N[C@H](Cc1ccc(I)cc1)C(=O)N[C@@H](CCCNC(=N)N)C(=O)N[C@@H](Cc1ccc(I)cc1)C(N)=O |  | 4.4 nM | EC50 (Melanocortin receptor 4 [5]): 3.5 nM; EC50 (Melanocortin receptor 4 [4]): > 100 µM |
| CC(=O)N[C@@H](Cc1cnc[nH]1)C(=O)N[C@H](Cc1ccc(I)cc1)C(=O)N1Cc2ccccc2CC1C(=O)N[C@H](Cc1ccc([N+](=O)[O-])cc1)C(N)=O (stereo partly drawn) |  |  | EC50 (Melanocortin receptor 3): 35 nM |
| CC(=O)N[C@@H](Cc1c[nH]cn1)C(=O)N[C@H](Cc1ccc(Cl)cc1)C(=O)N1Cc2ccccc2C[C@H]1C(=O)N1Cc2ccccc2C[C@H]1C(N)=O | 160 nM | 11400 nM |  |
| CC(=O)N[C@@H](Cc1cnc[nH]1)C(=O)N[C@H](Cc1ccc(I)cc1)C(=O)N[C@@H](CCCNC(=N)N)C(=O)N[C@@H](Cc1ccc(I)cc1)C(N)=O (Ac-H[dPhe(4-I)]R[Phe(4-I)]-NH2) |  |  | EC50 (Melanocortin receptor 4 [4]): > 100 µM; EC50 [3]: 12 nM |
| CC(=O)N[C@@H](Cc1ccc(O)cc1)C(=O)N[C@H](Cc1ccccc1)C(=O)N[C@@H](CCCNC(=N)N)C(=O)N[C@@H](Cc1c[nH]c2ccccc12)C(N)=O (Ac-Y[dF]RW-NH2) | 6.2 nM | 540 nM |  |
| CC(=O)N1Cc2ccccc2CC1C(=O)N[C@H](Cc1ccc(I)cc1)C(=O)N[C@@H](CCCNC(=N)N)C(=O)N[C@@H](Cc1ccc(I)cc1)C(N)=O (stereo partly drawn) | 4.26 nM | 440 nM |  |
| CC(=O)N[C@@H](CCCNC(=N)N)C(=O)N[C@H](Cc1ccc(I)cc1)C(=O)N1Cc2ccccc2C[C@H]1C(=O)N[C@H](Cc1ccc([N+](=O)[O-])cc1)C(N)=O | 0.26 nM | 2.6 nM | EC50 (Melanocortin receptor 4 [6]): 4.1 nM; EC50 (Melanocortin receptor 4 [5]): 2.9 nM; EC50 (Melanocortin receptor 4 [7]): 6.1 nM; EC50 (Melanocortin receptor 4 [4]): 19.7 µM; EC50 [3]: 2.7 nM; EC50 (Melanocortin receptor 4 [8]): 2.7 nM; EC50 (Melanocortin receptor 5): 1.1 nM |
| CC(=O)N[C@@H](Cc1c[nH]cn1)C(=O)N[C@H](Cc1ccc(Cl)cc1)C(=O)N[C@@H](CCCNC(=N)N)C(=O)N1Cc2ccccc2C[C@H]1C(N)=O | 110 nM | 7780 nM |  |
